Like-named read-outs stand apart in the source and are kept apart here.
Key:
Human primary T cells = experiment: In vitro antigen-independent expansion of T cells transduced with constitutive or ACZ-regulated mbIL15 constructs (cell numbers by flow cytometry); format: cell-based
Description: T cells were thawed, cells were washed and counted. T cells were mixed with CD3/CD28 beads (Invitrogen cat#11141D) at 3:1 bead to T cell ratio. 5×10^5 cells/well were added to 24-well plates in 500 μL media. Cells were activated for 24 hrs. Next day, lentivirus was thawed and added to each well at different volumes. After 24 hrs, 500 μL of fresh media was added to wells, and cells were expanded by adding equal volume of fresh media every 2-3 days to keep cell density at 0.5-1×10^6/mL. Cells were analyzed by flow cytometry to confirm expression on day 5 or 6. Cells were expanded for 9-10 days.
After T cell transduction and expansion, CD3/CD28 beads were removed using magnets, cells were washed twice, resuspended in fresh media and counted. Cells were plated in 12-well plates at 1×10^6 in 2 mL. One well of untransduced cells was cultured in the presence of 2 ng/mL IL15 as a control. T cells expressing regulated constructs were cultured in the absence or presence of acetazolamide (ACZ, 30, 10, 3, 1, 0.3 μM). Cell numbers were monitored by flow cytometry every 3-4 days and cells were cultured for 10-12 days. At each time point 100 μL of cells were collected from wells and analyzed by flow cytometry. Cells were split as needed. Cell cultures were maintained in 12-well plates by taking a portion and adding media in a new plate. Volumes for each well were recorded before and after split to calculate final volume in cell number assessment. IL15 or ACZ were replenished at final concentration of the fresh media added during each split.
T cell numbers were determined by flow cytometry. Empty vector (EV) transduced cell numbers decreased to background levels between 3-5 days in the absence of IL15, and cells expanded 11-fold in the presence of 2 ng/mL exogenous IL15 (FIG. 3A). T cells expressing constitutive IL15-292 and IL15-294 expanded between 18 and 21-fold, respectively, in 10 days (FIG. 3A). In T cells expressing IL15-293, maximum expansion was 9.5-11× with 30, 10, 3 μM (FIG. 3B). At the lowest concentration tested (0.3 μM), cells expanded 3.3×. These cells survived longer (0.8×) compared to EV cells without drug treatment […]. In T cells expressing IL15-295, maximum expansion was 8.2-10× with 30, 10, 3 μM and cells expanded 4.9× at the lowest concentration (0.3 μM) tested (FIG. 3C). Without drug treatment, these cells survived (0.9×) longer compared to EV.

T cells [1] = experiment: Acetazolamide dose response of IL15 expression on transduced T cells (flow cytometry); format: cell-based, human; conditions: ACZ 24 hrs starting at 100 μM, diluted 3-fold for 9 points
Description: Cells were treated with different concentrations of ACZ (ligand) starting at 100 μM for 24 hrs. Graphs show % IL15+ T Cells (FIG. 4A) and mean fluorescence intensity (MFI) of IL15 (FIG. 4B).
The effect of different concentrations of ACZ on IL15 expression was tested. T cells were treated with ACZ for 24 hrs starting at 100 μM, diluted 3-fold for 9 points. Both % IL15+ T Cells (FIG. 4A) and IL15 Mean Fluorescence Intensity (MFI) (FIG. 4B) analysis indicated similar dose curves for OT-IL15-293 and OT-IL15-295. There was 4-5-fold increase in expression (both % IL15+ T cells and IL15 MFI) between highest and lowest concentrations of ACZ.

T cells [2] = experiment: IL15 expression on T cells in vivo on day 25 (IL15Ra-Fc staining, flow cytometry); parameters: species or system NSG mice; conditions: day 25, treated with ACZ 200 mg/kg daily PO
Description: Human primary T cells capable of expressing constitutive mbIL15 or ACZ-regulated mbIL15 were prepared in accordance with methods described in Example 1 above. After T cell transduction and expansion, CD3/CD28 beads were removed using magnets, cells were washed twice, resuspended in fresh media and counted. T cells were mixed with expanded NK cells and each animal received 5×10^6 T cells and 2×10^6 expanded NK cells. Cells were infused by intravenous injections into NSG mice. Animals infused with T cells expressing regulated constructs were dosed daily with 200 mg/kg ACZ or vehicle by PO injections. Every 3-4 days, 50 μL blood was analyzed by flow cytometry for presence of T cells and NK cells using antibodies against mouse and human CD45, CD3 and CD56. IL15 expression on day 25 was analyzed using IL15Ra-Fc and fluorochrome conjugated anti-human IgG antibody.
IL15 expression on T cells in vivo on day 25 was analyzed by flow cytometry (FIG. 5C). T cells transduced with constitutive constructs IL15-292 and IL15-294 expressed high levels of IL15 (82% and 61%). IL15 expression was <1.5% in vehicle-treated IL15-293 and IL15-295 as well as EV groups. IL15 expression levels were 11% and 9% on T cells transduced with IL15-293 and IL15-295 in groups treated with ACZ.

TIL = experiment: Expression of regulated mbIL15 in TIL in response to ACZ (anti-IL15 and IL15Ra-Fc co-staining); format: cell-based, human
Description: HEK293T cells were seeded on collagen coated tissue culture plates until 70% confluent. Cells were transfected with pELNS transfer vector carrying constitutive (IL15-292) or regulated (IL15-293) IL15 constructs, as well as packaging plasmids (pRSV.REV, pMDLg/pRRE and OT-BaEVg-002 (SEQ ID NO: 51)) using Lipofectamine 3000 transfection reagent in Opti-MEM media. Media was replaced 6-8 hrs post-transfection with serum-free media. Supernatants containing virus were harvested 24 hr post-transfection, fresh media was added, and supernatants were harvested again at 48 hr post-transfection. Viral supernatants were filtered to remove debris and concentrated by low speed ultracentrifugation. Virus were resuspended, aliquoted and stored at −80 C freezer.
96-well non-coated tissue culture plates were incubated with 35 μg per mL RetroNectin (Takara Bio) in PBS for 2 h at 37° C. or overnight at 4° C. RetroNectin was removed and the plates washed with PBS. BaEV-pseudotyped lentivirus, prepared as described above, and TIL cell media, at a total volume of 50 μL per well, were added to each well and the plates were centrifuged at low speed for 2 hours at 32° C. TIL generated from a head and neck tumor sample prepared as described in Example 5 were engineered after 3 weeks in the pre-REP culture. TIL were activated for 24 hrs in 24-well plates with anti-CD3/CD28 beads at 3:1 bead to T cell ratio. Activated TIL were placed in virus-coated plates and centrifuged at 800 g for 2 hrs and incubated at 37° C. for 4 days in culture media. One well of cells was processed similarly without virus addition and used as negative control (“untransduced”). Cells that were transduced with the regulated mbIL15 construct were treated either with 10 μM ACZ or DMSO for 24 hrs.
mbIL15 expression was determined by flow cytometry using two staining reagents: fluorochrome-conjugated anti-IL15 antibody as well as a recombinant protein comprised of extracellular domain of IL15Ra fused to human IgG1 Fc domain (IL15Ra-Fc). mbIL15+ cell frequency was determined based on co-staining with anti-IL15 and IL15Ra-Fc (identified as the IL15+IL15Ra-Fc+ double positive population).

[3] = test system: cord blood-derived NK cells; experiment: Regulation of mbIL15 construct with ACZ in cord blood-derived NK cells (IL15Ra-Fc and anti-CD56 FACS); format: cell-based, human; conditions: DMSO overnight, regardless of donor
Description: One day prior to NK cell isolation as described in Example 8, feeder cells (K562 cells expressing 4-1BBL and mblL-21) were thawed in complete NK cell media (RPMI with Glutamax (ThermoFisher), 10% heat-inactivated fetal bovine serum (Gibco), 1× Penicillin/Streptomycin, 1 mM Sodium Pyruvate, 1×HEPES, 50 μM 2-Mercaptoethanol). On the day of NK cell isolation, 10×10^6 feeder cells were treated with mitomycin C to inhibit their proliferation and washed to remove excess drug. NK cells were added to the feeder cells at a 1:2 effector to target ratio in NK cell media with 200 U/mL recombinant human IL2 (rhIL2; PeproTech). NK cell cultures were expanded by replenishing cell cultures with NK cell media and rhIL2 every two days, and analyzed by FACS for NK cell expansion.
96-well non-coated tissue culture plates were incubated with 35 μg per mL RetroNectin (Takara Bio) in PBS for 2 h at 37° C. or overnight at 4° C. RetroNectin was removed and the plates washed with PBS. […]
NK cells from three different donors were isolated, expanded and transduced with BaEV-pseudotyped lentivirus containing either the IL15-292 construct or the IL15-293 construct. The titer of the IL15-292 lentivirus was 2.38×10^8 TU/mL while the titer for the IL15-293 lentivirus was 6.51×10^8 TU/mL (as measured by a Jurkat qPCR titer), and 4 μL lentivirus and 46 μL NK cell media were added to each well. […]

[4] = test system: TIL-matched patient-derived xenografts (hPDX); experiment: Human PDX (hPDX) model with engineered matched TIL; format: in vivo, NSG mice
Description: To evaluate the effect of regulated mbIL15 on the anti-tumor activity of tumor infiltrating lymphocytes (TIL), a human PDX (hPDX) model is used. […] TIL are transduced with BaEV-pseudotyped lentiviral vectors containing either the IL15-292 construct or the IL15-293 construct, as described in Example 6, or with BaEV-pseudotyped lentiviral empty vector (EV), and then optionally frozen. TIL-matched patient-derived xenografts (hPDX) from the tumor sample are established via subcutaneous implant into the right flank of NSG mice. Tumor growth is measured once or twice per week using calipers. On study start, tumors are measured, and mice are randomized and placed in cohorts based on similar mean tumor volume across all groups into new cages (N=8 for each group). […]
Group 1 receives untransduced TIL supplemented with recombinant human IL2 (hIL2) as benchmark control, and group 2 receives TIL transduced with constitutive mbIL15 (IL15-292). […] Blood (50 μL) was withdrawn from submandibular veins on pre-determined days. Red blood cells are lysed, stained with fluorochrome-conjugated antibodies against human CD45, CD3 and mouse CD45, and cells are analyzed by flow cytometry. Tumor growth is measured for up to approximately 90 days; endpoints include maximal caliper measurements as well as effects on animal health, such as tumor necrosis and decrease in body weight.

HL-60-luc = experiment: HL-60 animal model of acute myeloid leukemia with engineered NK cells; format: in vivo, NSG mice
Description: To evaluate the effect of regulated mbIL15 on the anti-tumor activity of NK cells, an HL-60 animal model of acute myeloid leukemia is used. Cord blood NK cells are transduced with BaEV-pseudotyped lentiviral vectors containing either the IL15-292 construct or the IL15-293 construct, as described in Example 9, or with BaEV-pseudotyped lentiviral empty vector (EV), and optionally frozen after transduction. HL-60 cells expressing luciferase (HL-60-luc) are injected intravenously (1×10^6/mouse) into NSG mice and tumor growth is measured once or twice per week by bioluminescence imaging measurement (total flux units in photons per second (p/s) after intraperitoneal injections of D-luciferin). On day 6, animals are randomized into new cages (N=8 for each group) when average tumor size reaches approximately 10^6 total p/s. […]
Group 1 receives NK cells engineered with EV as a negative control, and group 2 receives NK cells transduced with constitutive mbIL5 (construct IL15-292). […] Red blood cells are lysed, stained with fluorochrome-conjugated antibodies against human CD45, CD3 and mouse CD45, and cells are analyzed by flow cytometry. Tumor growth is measured up to approximately 30 days; endpoints include maximal total flux units (10^10) as well as effects on animal health such as hind-limb paralysis and decrease in body weight.

IL15-293: ACZ-regulated mbIL15 construct, mbIL15 linked to CA2 (M1del, L156H) DRD (AA SEQ ID NO: 24)
T cell expansion at the lowest concentration tested (Human primary T cells; ACZ 0.3 μM): 3.3 ×
maximum T cell expansion (Human primary T cells; ACZ 30, 10, 3 μM): 9.5-11 ×
T cell survival/expansion without drug treatment (Human primary T cells; no ACZ): 0.8 ×
EC50 (T cells [1]; read-out: EC50 of ACZ based on % IL15+ T Cells): 0.29 µM
EC50 (T cells [1]; read-out: EC50 of ACZ based on MFI of IL15): 0.65 µM
IL15 expression on T cells (T cells [2]): 11%
MFI of regulated mbIL15 in TIL (TIL; 10 μM ACZ 24 hrs): high
regulated mbIL15 expression in TIL (TIL; 10 μM ACZ 24 hrs): 42.5%
MFI of regulated mbIL15 in TIL (TIL; DMSO 24 hrs): low
regulated mbIL15 expression in TIL (TIL; DMSO 24 hrs): 17.1%
regulated mbIL15 expression in NK cells [3]: ≤ 10%
tumor growth ([4]; group 3, TIL transduced with regulated mbIL15, 200 mg/kg ACZ daily PO): substantially regress
tumor growth ([4]; group 4, TIL transduced with regulated mbIL15, vehicle daily): No tumor growth inhibition
tumor growth (HL-60-luc; group 3, NK cells transduced with regulated mbIL15, 200 mg/kg ACZ daily PO): regress substantially
NK cell expansion and persistence compared to groups 1 and 4 (HL-60-luc; group 3, regulated mbIL15, 200 mg/kg ACZ daily PO): higher expansion and persistence

exogenous IL15: exogenous IL15 (2 ng/mL) added to control T cell cultures [reference compound]
T cell expansion (Human primary T cells; Empty vector (EV) transduced cells, 2 ng/mL exogenous IL15): 11 fold
